Data as given in patent publication US20250100968A1, “BICYCLIC-HETEROCYCLE DERIVATIVES AND RELATED USES” (CENTESSA PHARMACEUTICALS (UK) LIMITED, priority 2022, published 2025).

target: T1, human orexin type 2 receptor (hOX2R) (Homo sapiens, UniProt O43614); assay: cell-based
T1 sequence (O43614 1-444): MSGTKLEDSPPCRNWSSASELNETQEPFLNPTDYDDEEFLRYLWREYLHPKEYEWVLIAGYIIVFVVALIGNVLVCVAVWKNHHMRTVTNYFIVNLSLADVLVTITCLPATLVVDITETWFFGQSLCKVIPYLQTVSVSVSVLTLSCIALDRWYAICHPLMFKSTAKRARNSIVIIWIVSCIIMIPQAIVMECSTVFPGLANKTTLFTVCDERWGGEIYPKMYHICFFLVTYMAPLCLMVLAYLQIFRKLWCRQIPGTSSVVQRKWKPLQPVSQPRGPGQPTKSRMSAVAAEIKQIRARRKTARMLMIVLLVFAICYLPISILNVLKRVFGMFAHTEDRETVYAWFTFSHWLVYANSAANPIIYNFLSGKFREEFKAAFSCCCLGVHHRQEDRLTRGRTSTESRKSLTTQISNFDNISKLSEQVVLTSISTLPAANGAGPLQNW
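Also: agonist activity in CHO cells stably expressing hOX2R, intracellular Ca2+ via Calcium 5 dye fluorescence area over 2 min, buffer-only as 0% and 10 nM orexin A as 100%.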
Method: Measurement of orexin type 2 receptor agonist activity. […] After removal of the medium, 50 μl of assay buffer 1 (0.1% bovine serum albumin (Sigma Aldrich), 20 mM HEPES (Molecular Dimensions), 250 mM probenecid (Sigma Aldrich), 1× Calcium 5 dye (Molecular Devices) in Hank's balanced salt solution (Invitrogen)) was added, and the cells were incubated for 60 min under the conditions of 37° C., 5% CO2. A test compound was dissolved in dimethyl sulfoxide (Sigma Aldrich) to 10 mM, and then diluted with assay buffer 2 (20 mM HEPES, Hank's balanced salt solution, 0.1% bovine serum albumin). For the reaction, a test compound solution (10 μl) was added using Fluorescent Imaging Plate Reader TETRA (FLIPR TETRA: manufactured by Molecular Devices), a fluorescence value (excitation wavelength 488 nm, measurement wavelength 570 nm) of each well was measured every one second for 2 min, and the agonist activity was determined using the area of the fluorescence value as an indicator of intracellular Ca^2+ concentration. The agonist activity of the test compound was calculated assuming that the fluorescence value of the well added with only the dilution buffer was 0% and the fluorescence value of the well added with 10 nM human orexin A (Tocris) buffer was 100%.

Q: Which EC50 does the source give for `N#CC1(C(=O)N2CC3(CC3)[C@H](NS(=O)(=O)CF)[C@@H]2Cc2cc(F)cc(-c3ccccc3)c2F)CCC1` [compound 13, N-((6S,7S)-5-(1-cyanocyclobutane-1-carbonyl)-6-((2,5-difluoro-[1,1′-biphenyl]-3-yl)methyl)-5-azaspiro[2.4]heptan-7-yl)-1-fluoromethanesulfonamide] here?
A: 0.0631 to 1 nM

Q: With `C[C@H](C#N)C(=O)N1CC2(CC2)[C@H](NS(=O)(=O)C(F)F)[C@@H]1Cc1cccc(-c2cc(F)cc(F)c2)c1F` [compound 49, N-((6S,7S)-5-((R)-2-cyanopropanoyl)-6-((2,3′,5′-trifluoro-[1,1′-biphenyl]-3-yl)methyl)-5-azaspiro[2.4]heptan-7-yl)-1,1-difluoromethanesulfonamide] as the compound, how does the EC50 read?
A: 1 to 10 nM

Q: `C[C@](O)(C(=O)N1CC2(CC2)[C@H](NS(=O)(=O)CF)[C@@H]1Cc1cc(F)cc(-c2ccccc2)c1F)C(F)F` [compound 84, N-((6S,7S)-5-((S)-3,3-difluoro-2-hydroxy-2-methylpropanoyl)-6-((2,5-difluoro-[1,1′-biphenyl]-3-yl)methyl)-5-azaspiro[2.4]heptan-7-yl)-1-fluoromethanesulfonamide] was tested. Which EC50 did it give?
A: 1 to 10 nM

Q: `O=C([C@@H](O)C1CC1)N1CC2(CC2)[C@H](NS(=O)(=O)CF)[C@@H]1Cc1cccc(-c2cc(F)cc(F)c2)c1F` [compound 3, N-((6S,7S)-5-((S)-2-cyclopropyl-2-hydroxyacetyl)-6-((2,3′,5′-trifluoro-[1,1′-biphenyl]-3-yl)methyl)-5-azaspiro[2.4]heptan-7-yl)-1-fluoromethanesulfonamide] was tested. Which EC50 did it give?
A: 10 to 100 nM

Q: For `N#C[C@]1(C(=O)N2CC3(CC3)[C@H](NS(=O)(=O)CF)[C@@H]2Cc2cc(F)cc(-c3ccccc3)c2F)CCO1` [compound 85, N-((6S,7S)-5-((S)-2-cyanooxetane-2-carbonyl)-6-((2,5-difluoro-[1,1′-biphenyl]-3-yl)methyl)-5-azaspiro[2.4]heptan-7-yl)-1-fluoromethanesulfonamide], which EC50 is on record?
A: 1 to 10 nM

Q: With `C[C@@H](F)C(=O)N1CC2(CC2)[C@H](NS(=O)(=O)CF)[C@@H]1Cc1cc(F)cc(-c2cccc(F)c2)c1F` [compound 21, 1-fluoro-N-((6S,7S)-5-((R)-2-fluoropropanoyl)-6-((2,3′,5-trifluoro-[1,1′-biphenyl]-3-yl)methyl)-5-azaspiro[2.4]heptan-7-yl)methanesulfonamide] as the compound, how does the EC50 read?
A: 0.0631 to 1 nM

Q: For `O=C([C@H]1CCCO1)N1CC2(CC2)[C@H](NS(=O)(=O)C(F)F)[C@@H]1Cc1cccc(-c2cc(F)cc(F)c2)c1F` [compound 50, 1,1-difluoro-N-((6S,7S)-5-((R)-tetrahydrofuran-2-carbonyl)-6-((2,3′,5′-trifluoro-[1,1′-biphenyl]-3-yl)methyl)-5-azaspiro[2.4]heptan-7-yl)methanesulfonamide], which EC50 is on record?
A: 1 to 10 nM

Q: How did the EC50 turn out when `O=C(NCC(F)F)N1CC2(CC2)[C@H](NS(=O)(=O)C(F)F)[C@@H]1Cc1cc(F)cc(-c2cc(F)cc(F)c2)c1F` [compound 25, (6S,7S)-N-(2,2-difluoroethyl)-7-((difluoromethyl)sulfonamido)-6-((2,3′,5,5′-tetrafluoro-[1,1′-biphenyl]-3-yl)methyl)-5-azaspiro[2.4]heptane-5-carboxamide] was run?
A: 0.0631 to 1 nM

Q: `N#C[C@]1(C(=O)N2CC3(CC3)[C@H](NS(=O)(=O)CF)[C@@H]2Cc2cccc(-c3ccccc3)c2F)C[C@H](F)C1` [compound 54, N-((6S,7S)-5-((1r,3S)-1-cyano-3-fluorocyclobutane-1-carbonyl)-6-((2-fluoro-[1,1′-biphenyl]-3-yl)methyl)-5-azaspiro[2.4]heptan-7-yl)-1-fluoromethanesulfonamide] was tested. Which EC50 did it give?
A: 0.0631 to 1 nM

Q: Which EC50 does the source give for `C[C@@H](F)S(=O)(=O)N[C@@H]1[C@H](Cc2cc(F)cc(-c3ccccc3)c2F)N(C(=O)[C@H]2CCO2)CC12CC2` [compound 55, (S)-N-((6S,7S)-6-((2,5-difluoro-[1,1′-biphenyl]-3-yl)methyl)-5-((R)-oxetane-2-carbonyl)-5-azaspiro[2.4]heptan-7-yl)-1-fluoroethane-1-sulfonamide] here?
A: 1 to 10 nM

Q: With `N#CC1(C(=O)N2CC3(CC3)[C@H](NS(=O)(=O)CF)[C@@H]2Cc2cccc(-c3ccccc3)c2F)CC1` [compound 5, N-((6S,7S)-5-(1-cyanocyclopropane-1-carbonyl)-6-((2-fluoro-[1,1′-biphenyl]-3-yl)methyl)-5-azaspiro[2.4]heptan-7-yl)-1-fluoromethanesulfonamide] as the compound, how does the EC50 read?
A: 0.0631 to 1 nM

Q: For `COC1CN(C(=O)N2CC3(CC3)[C@H](NS(=O)(=O)CF)[C@@H]2Cc2cc(F)cc(-c3ccccc3)c2F)C1` [compound 59, N-((6S,7S)-6-((2,5-difluoro-[1,1′-biphenyl]-3-yl)methyl)-5-(3-methoxyazetidine-1-carbonyl)-5-azaspiro[2.4]heptan-7-yl)-1-fluoromethanesulfonamide], which EC50 is on record?
A: 1 to 10 nM

Q: Which EC50 does the source give for `N#C[C@]1(C(=O)N2CC3(CC3)[C@H](NS(=O)(=O)CF)[C@@H]2Cc2cccc(-c3cccc(F)c3)c2F)CCO1` [compound 46, N-((6S,7S)-5-((S)-2-cyanooxetane-2-carbonyl)-6-((2,3′-difluoro-[1,1′-biphenyl]-3-yl)methyl)-5-azaspiro[2.4]heptan-7-yl)-1-fluoromethanesulfonamide] here?
A: 1 to 10 nM

Q: How did the EC50 turn out when `O=C(NCC(F)F)N1CC2(CC2)[C@H](NS(=O)(=O)CF)[C@@H]1Cc1cccc(-c2cc(F)cc(F)c2)c1F` [compound 15, (6S,7S)-N-(2,2-difluoroethyl)-7-((fluoromethyl)sulfonamido)-6-((2,3′,5′-trifluoro-[1,1′-biphenyl]-3-yl)methyl)-5-azaspiro[2.4]heptane-5-carboxamide] was run?
A: 1 to 10 nM

Q: `C[C@@](O)(C(=O)N1CC2(CC2)[C@H](NS(=O)(=O)CF)[C@@H]1Cc1cccc(-c2ccccc2)c1F)C1CC1` [compound 2, N-((6S,7S)-5-((S)-2-cyclopropyl-2-hydroxypropanoyl)-6-((2-fluoro-[1,1′-biphenyl]-3-yl)methyl)-5-azaspiro[2.4]heptan-7-yl)-1-fluoromethanesulfonamide] was tested. Which EC50 did it give?
A: 10 to 100 nM

Q: How did the EC50 turn out when `C[C@@H](F)C(=O)N1CC2(CC2)[C@H](NS(=O)(=O)C(F)F)[C@@H]1Cc1cccc(-c2cc(F)cc(F)c2)c1F` [compound 31, 1,1-difluoro-N-((6S,7S)-5-((R)-2-fluoropropanoyl)-6-((2,3′,5′-trifluoro-[1,1′-biphenyl]-3-yl)methyl)-5-azaspiro[2.4]heptan-7-yl)methanesulfonamide] was run?
A: 1 to 10 nM

Q: How did the EC50 turn out when `O=C(NCC(F)F)N1CC2(CC2)[C@H](NS(=O)(=O)C(F)F)[C@@H]1Cc1cccc(-c2cc(F)cc(F)c2)c1F` [compound 28, (6S,7S)-N-(2,2-difluoroethyl)-7-((difluoromethyl)sulfonamido)-6-((2,3′,5′-trifluoro-[1,1′-biphenyl]-3-yl)methyl)-5-azaspiro[2.4]heptane-5-carboxamide] was run?
A: 0.0631 to 1 nM

Q: Which EC50 does the source give for `C[C@@H](C#N)C(=O)N1CC2(CC2)[C@H](NS(=O)(=O)CF)[C@@H]1Cc1cccc(-c2cc(F)cc(F)c2)c1F` [compound 63, N-((6S,7S)-5-((S)-2-cyanopropanoyl)-6-((2,3′,5′-trifluoro-[1,1′-biphenyl]-3-yl)methyl)-5-azaspiro[2.4]heptan-7-yl)-1-fluoromethanesulfonamide] here?
A: 1 to 10 nM

Q: Which EC50 does the source give for `CC(F)(F)CNC(=O)N1CC2(CC2)[C@H](NS(=O)(=O)CF)[C@@H]1Cc1cccc(-c2cc(F)cc(F)c2)c1F` [compound 38, (6S,7S)-N-(2,2-difluoropropyl)-7-((fluoromethyl)sulfonamido)-6-((2,3′,5′-trifluoro-[1,1′-biphenyl]-3-yl)methyl)-5-azaspiro[2.4]heptane-5-carboxamide] here?
A: 1 to 10 nM

Q: Which EC50 does the source give for `C[C@H](F)S(=O)(=O)N[C@@H]1[C@H](Cc2cc(F)cc(-c3ccccc3)c2F)N(C(=O)[C@H]2CCO2)CC12CC2` [compound 56, (R)-N-((6S,7S)-6-((2,5-difluoro-[1,1′-biphenyl]-3-yl)methyl)-5-((R)-oxetane-2-carbonyl)-5-azaspiro[2.4]heptan-7-yl)-1-fluoroethane-1-sulfonamide] here?
A: 0.0631 to 1 nM

Q: Which EC50 does the source give for `C[C@@H](C#N)C(=O)N1CC2(CC2)[C@H](NS(=O)(=O)C(F)F)[C@@H]1Cc1cccc(-c2ccccc2)c1F` [compound 41, N-((6S,7S)-5-((S)-2-cyanopropanoyl)-6-((2-fluoro-[1,1′-biphenyl]-3-yl)methyl)-5-azaspiro[2.4]heptan-7-yl)-1,1-difluoromethanesulfonamide] here?
A: 1 to 10 nM

Q: For `N#C[C@@]1(C(=O)N2CC3(CC3)[C@H](NS(=O)(=O)CF)[C@@H]2Cc2cccc(-c3cc(F)ccc3F)c2F)CCO1` [compound 79, N-((6S,7S)-5-((R)-2-cyanooxetane-2-carbonyl)-6-((2,2′,5′-trifluoro-[1,1′-biphenyl]-3-yl)methyl)-5-azaspiro[2.4]heptan-7-yl)-1-fluoromethanesulfonamide], which EC50 is on record?
A: 0.0631 to 1 nM

Q: For `N#C[C@@]1(C(=O)N2CC3(CC3)[C@H](NS(=O)(=O)CF)[C@@H]2Cc2cccc(-c3cccc(F)c3)c2F)CCO1` [compound 45, N-((6S,7S)-5-((R)-2-cyanooxetane-2-carbonyl)-6-((2,3′-difluoro-[1,1′-biphenyl]-3-yl)methyl)-5-azaspiro[2.4]heptan-7-yl)-1-fluoromethanesulfonamide], which EC50 is on record?
A: 1 to 10 nM

Q: `O=C([C@H]1CCCO1)N1CC2(CC2)[C@H](NS(=O)(=O)CF)[C@@H]1Cc1cccc(-c2cc(F)cc(F)c2)c1F` [compound 42, 1-fluoro-N-((6S,7S)-5-((R)-tetrahydrofuran-2-carbonyl)-6-((2,3′,5′-trifluoro-[1,1′-biphenyl]-3-yl)methyl)-5-azaspiro[2.4]heptan-7-yl)methanesulfonamide] was tested. Which EC50 did it give?
A: 1 to 10 nM
